# Results published in paper PMC5218480 (PLoS ONE, 2017).
# Tested on: MV-4-11 cells
# Assay: Gene expression microarray analysis (Affymetrix PrimeView) and GSEA
# Type: cell-based, human
# Conditions: ProbeSet 11758779_at; LIST B
structure (smiles),measurement,value
Nc1ncn([C@@H]2O[C@H](CO)[C@@H](O)[C@H]2O)c(=O)n1 [azacitidine],"RFU, TMEM50B",84.99 RFU
